We go through 4 compounds from paper PMC8406418 (Journal of Natural Products, 2021).

Where “and” joins values, the source holds several entries; their conditions need not be identical. Identical values can stand only once. Like-named read-outs stand apart in the source and are kept apart here. Where a SMILES comes first, the peptide text is derived from it. Bridges are numbered along the chain shown (N, C = ends).

As a reminder, the Ki is the dissociation constant of the complex between target and ligand, obtained from inhibition or displacement. What is called EC50 is the concentration needed to bring the measured effect to its halfway point. As usually defined, the Emax is the maximal effect, on the per cent scale that the assay sets.

Experiment [1] concerns the target T1, mouse KOR (Mus musculus, UniProt P33534).
Experiment [2] concerns the target T1, mouse KOR. Nature of the experiment: biochemical.
The target of experiment [3] is T1, mouse KOR. Nature of the experiment: cell-based. The conditions noted are these: for Emax: HEK293, read-out: Emax cAMP inhibition.
The test system of experiment [4] is human T-cell proliferation. Also on record: method as in PMID 23840803. The note with it: cited from earlier work.
The target of experiment [5] is T1, mouse KOR. It is filed as cell-based. Also on record: expressed in transfected cells; host or cells: HEK293 (transient, jetPRIME).
Experiment [6] deals with untransfected HEK 293 cells. The class given is cell-based.

T1 sequence (P33534 whole entry): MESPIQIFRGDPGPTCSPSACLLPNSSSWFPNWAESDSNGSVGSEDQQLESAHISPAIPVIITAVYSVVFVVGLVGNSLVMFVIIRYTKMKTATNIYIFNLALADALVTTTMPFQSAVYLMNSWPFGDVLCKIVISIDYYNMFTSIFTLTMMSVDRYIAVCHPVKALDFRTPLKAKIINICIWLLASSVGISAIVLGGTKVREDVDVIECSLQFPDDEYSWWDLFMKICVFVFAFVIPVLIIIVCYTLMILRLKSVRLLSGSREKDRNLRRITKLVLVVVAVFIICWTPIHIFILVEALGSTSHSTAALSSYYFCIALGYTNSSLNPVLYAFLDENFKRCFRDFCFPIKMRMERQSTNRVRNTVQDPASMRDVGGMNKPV

On to `CC[C@H]1CN2CCc3cc(OC)c(OC)cc3[C@@H]2C[C@@H]1C[C@H]1NCCc2cc(OC)c(OC)cc21` [Emetine], for which, at mouse KOR [1] (up to concentrations of 10 μM, 1 nM [3H]-DPN), the “displacement of [3H]-DPN” value is “did not displace the radioligand”.

Regarding `CC(C)C[C@@H]1NC(=O)CNC(=O)[C@H](CC(N)=O)NC(=O)[C@H](CCCNC(=N)N)NC(=O)[C@H]([C@@H](C)O)NC(=O)[C@@H]2CSSC[C@@H]3NC(=O)[C@H]([C@@H](C)O)NC(=O)CNC(=O)CNC(=O)[C@H](C(C)C)NC(=O)[C@@H]4CSSC[C@H](NC(=O)[C@H](CCCCN)NC(=O)[C@H](CSSC[C@H](NC(=O)[C@H](C(C)C)NC(=O)[C@@H]5CCCN5C1=O)C(=O)NCC(=O)N[C@@H](CCC(=O)O)C(=O)N[C@@H]([C@@H](C)O)C(=O)N4)NC(=O)CNC(=O)[C@@H]1CCCN1C(=O)[C@H]([C@@H](C)O)NC(=O)[C@H](CC(N)=O)NC3=O)C(=O)N[C@@H](CO)C(=O)N[C@@H](Cc1c[nH]c3ccccc13)C(=O)N1CCC[C@H]1C(=O)N[C@@H](C(C)C)C(=O)N2` [T20K, [T20K]kalata B1] (cyclo(CGETCVGGTCNTPGCKCSWPVCTRNGLPV); disulfide 1-15, 5-17, 10-22), the Ki at mouse KOR [2] is 2000 nM and ~2000 nM. Besides, at mouse KOR [3], the “increase in basal cAMP production” value is given as ~50%, the “increase in efficacy of dyn A1–13 (cAMP)” value is given as 30–60% and the Emax is 105 ± 5%. The EC50 on mouse KOR [3] (EC50 cAMP inhibition) was 24000 nM and ~24000 nM. Further, in experiment [4], the “potency to suppress lymphocyte proliferation” value was 2000 to 4000 nM. Further, the “β-arrestin-2 recruitment (interaction of β-arrestin-2 and KOR)” value on mouse KOR [5] was “no interaction of β-arrestin-2 and KOR was detected”.

As for `CC[C@H](C)[C@@H]1NC(=O)[C@H](C(C)C)NC(=O)[C@H]([C@@H](C)O)NC(=O)[C@H](CO)NC(=O)[C@H](Cc2ccccc2)NC(=O)[C@@H]2CSSC[C@@H]3NC(=O)[C@H](C(C)C)NC(=O)[C@H](CCCCN)NC(=O)[C@H](CC(N)=O)NC(=O)[C@H](CCCCN)NC(=O)[C@@H]4CSSC[C@H](NC(=O)[C@H](CO)NC(=O)[C@H](CCC(=O)O)NC(=O)CNC(=O)[C@H](CSSC[C@H](NC(=O)CNC1=O)C(=O)N[C@@H](CO)C(=O)N4)NC(=O)[C@@H]1CCCN1C(=O)[C@H]([C@@H](C)CC)NC(=O)[C@H](C(C)C)NC(=O)CNC(=O)[C@H](CC(N)=O)NC(=O)[C@H](CCCNC(=N)N)NC(=O)[C@H](Cc1ccc(O)cc1)NC3=O)C(=O)N[C@@H](C(C)C)C(=O)N[C@@H](Cc1ccccc1)C(=O)N[C@@H]([C@@H](C)CC)C(=O)N1CCC[C@H]1C(=O)N2` [caripe 10] (cyclo(CFSTVIGCSCKNKVCYRNGVIPCGESCVFIP); disulfide 1-15, 8-23, 10-27), the Ki on mouse KOR [2] is 1200 ± 300 nM. In addition, the “displacement of [3H]-DPN by cyclotides” value on mouse KOR [1] is recorded as “strongest effect”. In addition, at mouse KOR [3] (EC50 cAMP inhibition), the EC50 was 60200 nM and ~60000 nM. In addition, on mouse KOR [3], the Emax came to 144 ± 12%.

Regarding `CC[C@H](C)[C@H](NC(=O)[C@H](CCCNC(=N)N)NC(=O)[C@H](CCCNC(=N)N)NC(=O)[C@H](CC(C)C)NC(=O)[C@H](Cc1ccccc1)NC(=O)CNC(=O)CNC(=O)[C@@H](N)Cc1ccc(O)cc1)C(=O)N[C@@H](CCCNC(=N)N)C(=O)N1CCC[C@H]1C(=O)N[C@@H](CCCCN)C(=O)N[C@@H](CC(C)C)C(=O)N[C@@H](CCCCN)C(N)=O` [dyn A1–13, Dyn A1–13 amide, reference compound], the Ki at mouse KOR [1] (read-out: Ki ± SD) was 0.4 nM and 0.3 nM. In addition, the “cAMP inhibition Emax ± SD” value on mouse KOR [3] is 115.5 ± 20.0% and 122.0 ± 21.6% and 133.2 ± 41.9 % and 160.3 ± 47.4 % and 158.8 ± 54.0 %. The EC50 stood at 8.8 ± 2.4 nM at mouse KOR [3] (read-out: cAMP inhibition EC50 ± SD) and 159 ± 92.4 nM at mouse KOR [5] (read-out: EC50 β-arrestin-2 recruitment). For the same compound, the “changes in cAMP levels” value in experiment [6] is recorded as “no changes in cAMP levels were observed”.
